Results taken from ChEMBL document CHEMBL2346598, “Synthesis and pharmacological characterization of 2-(acylamino)thiophene derivatives as metabolically stable, orally effective, positive allosteric modulators of the GABAB receptor” (J Med Chem, 2013).
The source made the active and inactive calls. No cut-off for these calls is given here.

Legend:
[1] = (§1) Positive allosteric modulation of GABAB receptor in rat cortical membranes assessed as potentiation of GABA-induced [35S]GTPgammaS binding after 30 mins by liquid scintillation counting analysis; assay type: functional, cell membranes, Membrane
[2] = test system: Mus musculus; test: Hypnotic effect in ip dosed DBA mouse assessed as reduction in baclofen-induced onset of loss of righting reflex incubated 30 mins prior to baclofen-challenge; assay type: functional, organism-based
[3] = Drug metabolism in mouse liver microsomes at 5 uM after 60 mins by LC/MS/MS analysis; assay type: ADME, Microsome; details: read-out: Drug metabolism
[4] = test system: Mus musculus; test: Hypnotic effect in DBA mouse assessed as potentiation of baclofen-induced loss of righting reflex at 30 mg/kg, ip incubated for 30 mins prior to baclofen-challenge; assay type: functional, organism-based; parameters: dose 30 mg/kg
[5] = test system: Mus musculus; test: Hypnotic effect in ip dosed DBA mouse assessed as increase in baclofen-induced duration of loss of righting reflex incubated for 30 mins prior to baclofen-challenge; assay type: functional, organism-based
[6] = test system: Mus musculus; test: Hypnotic effect in DBA mouse assessed as increase in pentobarbital-induced duration of loss of righting reflex at 300 mg/kg, ip incubated for 30 mins prior to pentobarbital-challenge; assay type: functional; details: route intraperitoneal
[7] = test system: Mus musculus; test: Hypnotic effect in DBA mouse assessed as reduction in baclofen-induced onset of loss of righting reflex at 300 mg/kg, ig incubated for 30 mins prior to baclofen-challenge relative to vehicle-treated control; assay type: functional, organism-based; parameters: dose 300 mg/kg
[8] = test system: Plasma; test: Metabolic stability in mouse plasma at 5 uM after 30 mins by HPLC-MS analysis; assay type: ADME, cell-free; details: 0.5 h
[9] = test system: Mus musculus; test: Hypnotic effect in DBA mouse assessed as reduction in pentobarbital-induced onset of loss of righting reflex at 30 mg/kg, ip incubated for 30 mins prior to pentobarbital-challenge (reference value: 60.0 +/- 0.0 min); assay type: functional; details: route intraperitoneal
[10] = test system: Mus musculus; test: Hypnotic effect in DBA mouse assessed as reduction in pentobarbital-induced onset of loss of righting reflex at 300 mg/kg, ip incubated for 30 mins prior to pentobarbital-challenge (reference value: 60.0 +/- 0.0 min); assay type: functional; details: route intraperitoneal
[11] = test system: Mus musculus; test: Hypnotic effect in DBA mouse assessed as increase in pentobarbital-induced duration of loss of righting reflex at 30 mg/kg, ip incubated for 30 mins prior to pentobarbital-challenge; assay type: functional; details: route intraperitoneal
[12] = test system: Mus musculus; test: Hypnotic effect in DBA mouse assessed as increase in baclofen-induced duration of loss of righting reflex at 300 mg/kg, ig incubated for 30 mins prior to baclofen-challenge relative to vehicle-treated control; assay type: functional, organism-based; parameters: dose 300 mg/kg
[13] = test system: Mus musculus; test: Hypnotic effect in DBA mouse assessed as increase in baclofen-induced duration of loss of righting reflex over 3 mg/kg, ip incubated for 30 mins prior to baclofen-challenge relative to vehicle-treated control; assay type: functional, organism-based; parameters: dose 3 mg/kg
[14] = test system: Mus musculus; test: Hypnotic effect in DBA mouse assessed as potentiation of baclofen-induced loss of righting reflex at 300 mg/kg, ig incubated for 30 mins prior to baclofen-challenge; assay type: functional, organism-based; parameters: dose 300 mg/kg
[15] = test system: Mus musculus; test: Hypnotic effect in DBA mouse assessed as potentiation of pentobarbital-induced loss of righting reflex at 300 mg/kg, ip incubated for 30 mins prior to pentobarbital-challenge; assay type: functional, organism-based; parameters: dose 300 mg/kg
[16] = organism: Rattus norvegicus; test: Positive allosteric modulation of GABAB receptor in rat cortical membranes assessed as stimulation of [35S]GTPgammaS binding up to 100 uM after 30 mins by liquid scintillation counting analysis; assay type: functional, cell membranes; details: Membrane
[17] = test system: Mus musculus; test: Hypnotic effect in DBA mouse assessed as potentiation of pentobarbital-induced loss of righting reflex at 30 mg/kg, ip incubated for 30 mins prior to pentobarbital-challenge; assay type: functional, organism-based; parameters: dose 30 mg/kg
[18] = test system: Mus musculus; test: Hypnotic effect in ip dosed DBA mouse assessed as potentiation of pentobarbital-induced loss of righting reflex incubated for 30 mins prior to pentobarbital-challenge; assay type: functional, organism-based
[19] = test system: Mus musculus; test: Hypnotic effect in DBA mouse assessed as reduction in pentobarbital-induced onset of loss of righting reflex at 100 mg/kg, ip incubated for 30 mins prior to pentobarbital-challenge (reference value: 60.0 +/- 0.0 min); assay type: functional; details: route intraperitoneal
[20] = test system: NIH3T3; test: Cytotoxicity against mouse NIH/3T3 cells after 24 hrs by neutral red staining-based UV/visible spectrophotometric analysis; assay type: cell-based; details: NIH3T3, 24 h
[21] = test system: Mus musculus; test: Hypnotic effect in DBA mouse assessed as potentiation of baclofen-induced loss of righting reflex at 100 mg/kg, ip incubated for 30 mins prior to baclofen-challenge; assay type: functional, organism-based; parameters: dose 100 mg/kg
[22] = test system: Mus musculus; test: Hypnotic effect in DBA mouse assessed as increase in pentobarbital-induced duration of loss of righting reflex at 100 mg/kg, ip incubated for 30 mins prior to pentobarbital-challenge; assay type: functional; details: route intraperitoneal
[23] = test system: Mus musculus; test: Hypnotic effect in DBA mouse assessed as potentiation of baclofen-induced loss of righting reflex at 10 mg/kg, ip incubated for 30 mins prior to baclofen-challenge; assay type: functional, organism-based; parameters: dose 10 mg/kg
[24] = test system: Mus musculus; test: Hypnotic effect in DBA mouse assessed as potentiation of pentobarbital-induced loss of righting reflex at 100 mg/kg, ip incubated for 30 mins prior to pentobarbital-challenge; assay type: functional, organism-based; parameters: dose 100 mg/kg
[25] = organism: Rattus norvegicus; test: Positive allosteric modulation of GABAB receptor in rat cortical membranes assessed as potentiation of GABA-induced [35S]GTPgammaS binding at 30 uM after 30 mins by liquid scintillation counting analysis relative to GABA; assay type: functional, cell membranes; details: Membrane
[26] = organism: Rattus norvegicus; test: Positive allosteric modulation of GABAB receptor in rat cortical membranes assessed as potentiation of GABA-induced [35S]GTPgammaS binding at 2.5 uM after 30 mins by liquid scintillation counting analysis relative to GABA; assay type: functional, cell membranes; details: Membrane
[27] = test system: Mus musculus; test: Hypnotic effect in DBA mouse assessed as potentiation of baclofen-induced loss of righting reflex at 3 mg/kg, ip incubated for 30 mins prior to baclofen-challenge; assay type: functional, organism-based; parameters: dose 3 mg/kg
[28] = test system: Mus musculus; test: Hypnotic effect in DBA mouse assessed as reduction in baclofen-induced onset of loss of righting reflex over 10 mg/kg, ip incubated for 30 mins prior to baclofen-challenge relative to vehicle-treated control; assay type: functional, organism-based; parameters: dose 10 mg/kg
[29] = Intrinsic clearance in mouse liver microsomes assessed per mg protein at 5 uM after 60 mins by LC/MS/MS analysis; assay type: ADME, Microsome; details: read-out: CLH
[30] = test system: Mus musculus; test: Hypnotic effect in DBA mouse assessed as potentiation of baclofen-induced loss of righting reflex at 300 mg/kg, ip incubated for 30 mins prior to baclofen-challenge; assay type: functional, organism-based; parameters: dose 300 mg/kg
[31] = test system: Mus musculus; test: Hypnotic effect in DBA mouse assessed as potentiation of baclofen-induced loss of righting reflex at 1 mg/kg, ip incubated for 30 mins prior to baclofen-challenge; assay type: functional, organism-based; parameters: dose 1 mg/kg
[32] = organism: Rattus norvegicus; test: Positive allosteric modulation of GABAB receptor in rat cortical membranes assessed as potentiation of GABA-induced [35S]GTPgammaS binding at 25 uM after 30 mins by liquid scintillation counting analysis relative to GABA; assay type: functional, cell membranes; details: Membrane
[33] = Elimination rate constant in mouse liver microsomes at 5 uM after 60 mins by LC/MS/MS analysis; assay type: ADME, Microsome
[34] = organism: Rattus norvegicus; test: as §1; assay type: functional, cell membranes; details: Membrane
[35] = test system: Mus musculus; test: Hypnotic effect in DBA mouse assessed as increase in baclofen-induced duration of loss of righting reflex at 100 to 300 mg/kg, ip incubated for 30 mins prior to baclofen-challenge relative to vehicle-treated control; assay type: functional, organism-based
[36] = test system: Mus musculus; test: Hypnotic effect in DBA mouse assessed as reduction in baclofen-induced onset of loss of righting reflex at 100 to 300 mg/kg, ip incubated for 30 mins prior to baclofen-challenge relative to vehicle-treated control; assay type: functional, organism-based
[37] = test system: Mus musculus; test: Hypnotic effect in DBA mouse assessed as increase in baclofen-induced duration of loss of righting reflex over 10 mg/kg, ip incubated for 30 mins prior to baclofen-challenge relative to vehicle-treated control; assay type: functional, organism-based; parameters: dose 10 mg/kg
[38] = test system: Mus musculus; test: Hypnotic effect in DBA mouse assessed as reduction in baclofen-induced onset of loss of righting reflex over 1 mg/kg, ip incubated for 30 mins prior to baclofen-challenge relative to vehicle-treated control; assay type: functional, organism-based; parameters: dose 1 mg/kg
[39] = Ratio of compound IC50 to COR627 IC50 for mouse NIH/3T3 cells; assay type: ADME, cell-based, NIH3T3; details: read-out: Ratio IC50
[40] = Ratio of compound IC50 to COR628 IC50 for mouse NIH/3T3 cells; assay type: ADME, cell-based, NIH3T3; details: read-out: Ratio IC50
[41] = test system: Mus musculus; test: Hypnotic effect in DBA mouse assessed as increase in baclofen-induced duration of loss of righting reflex over 30 mg/kg, ip incubated for 30 mins prior to baclofen-challenge relative to vehicle-treated control; assay type: functional, organism-based; parameters: dose 30 mg/kg

metabolised at 1 h, 5 µM [3] [%] | Stability [8] | Activity [16] | Activity [26] [%] | microsomal CLint at 5 µM [29] [µL/min/mg] | Activity [32] [%] | k el at 1 h, 5 µM [33] [s⁻¹] | SMILES | Activity [2] | Activity [4] | Activity [5] | Time [6] [min] | Activity [7] | Activity [12] | Activity [14] | IC50 [20] [µM] | Activity [21] | Activity [23] | Activity [27] | Activity [30] | Activity [31] | also measured
40 | Unstable | inactive | 17.8 | 12 | 27.3 | 0.000192 | CCc1c(C)sc(NC(=O)c2ccc(C(F)(F)F)cc2)c1C(=O)OC | Dose-dependent effect | Active | Dose-dependent effect | 23.3 | Active | Active | Active | 54 | Active | Active | Active | Active | Active | EC50 [1]: 0.28 µM; Time [9]: 54 min; Time [10]: 31.3 min; Time [11]: 2.3 min; Activity [13]: Active; Activity [15]: Active; Activity [17]: inactive; Activity [18]: Dose-dependent effect; Time [19]: 45.2 min; Time [22]: 7 min; Activity [24]: inactive; Emax [25]: 60%; Activity [28]: Active
28 | Unstable | inactive | 3.7 | 7.73 | 18.2 | 0.000124 | CCc1c(C)sc(NC(=O)c2ccc(C)cc2)c1C(=O)OC | Dose-dependent effect | Active | Dose-dependent effect | 14 | Active | Active | Active | 95 | Active | Active | Active | Active | inactive | Activity [34]: inactive; Activity [35]: Active; Activity [36]: Active; Time [9]: 53.3 min; Time [10]: 26.7 min; Time [11]: 4.7 min; Activity [15]: Active; Activity [17]: inactive; Time [19]: 43.8 min; Time [22]: 11.2 min; Activity [24]: inactive
28 | Unstable | inactive | 9.2 | 7.9 | 18.3 | 0.000127 | CCc1c(C)sc(NC(=O)c2ccc(Cl)cc2)c1C(=O)OC | Dose-dependent effect | Active | Dose-dependent effect | 7.3 | Active | Active | Active | 59 | Active | Active | Active | Active | Active | EC50 [1]: 1.11 µM; Time [9]: 60 min; Time [10]: 45.8 min; Time [11]: 0 min; Activity [15]: Active; Activity [17]: inactive; Activity [37]: Active; Time [19]: 51.8 min; Time [22]: 4.8 min; Activity [24]: inactive; Emax [25]: 51%; Activity [28]: Active
32 | Unstable | inactive | 19 | 8.98 | 23.2 | 0.000144 | CCc1c(C)sc(NC(=O)c2ccc(C(C)(C)C)cc2)c1C(=O)OC | Dose-dependent effect | Active | Dose-dependent effect |  | Active | Active | Active | 140 | Active | Active | Active | Active | Active | Activity [34]: inactive; Activity [38]: Active; selectivity ratio [39]: 4; selectivity ratio [40]: 4; Activity [41]: Active
